Measured values taken from patent US9637473B2, “Acrylamide derivatives as antimalarial agents” (priority 2013, dated 2017).

tested on: P. Falciparum NF54; test: Plasmodium falciparum in vitro assay ([3H]-hypoxanthine incorporation); assay type: cell-based; settings: Plasmodium falciparum, Erythrocyte, P. Falciparum NF54, erythrocytic stages in human red blood cells, 50% human serum
Method in brief: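 Activity against the blood stages of Plasmodium falciparum growing in human red blood cells was measured by how much [3H]-hypoxanthine the parasites took up. Filters were dried, sealed in plastic foil containing 10 mL of scintillation fluid, and read on a Betaplate liquid scintillation counter. IC50 values came from sigmoidal inhibition curves fitted in Microsoft Excel.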

| SMILES | IC50 |
| --- | --- |
| CN(c1ccncc1)c1ccc(CN(C(=O)/C=C/c2ccc(C(F)(F)F)cc2)[C@@H]2CCCN(C3CCCC3)C2)cc1 [Example 59, (R,E)-N-(1-cyclopentylpiperidin-3-yl)-N-(4-(methyl(pyridin-4-yl)amino)benzyl)-3-(4-(trifluoromethyl)phenyl)acrylamide] | 80 nM |
| CC(C)CCN1CCC[C@H](N(Cc2ccc(N(C)c3ccncc3)cc2)C(=O)/C=C/c2ccc(C(F)(F)F)cc2)C1 [Example 61, (S,E)-N-(1-isopentylpiperidin-3-yl)-N-(4-(methyl(pyridin-4-yl)amino)benzyl)-3-(4-(trifluoromethyl)phenyl)acrylamide] | 82 nM |
| CC(C)CCN1CCC[C@@H](N(Cc2ccc(N(C)c3ccncc3)cc2)C(=O)/C=C/c2ccc(C(F)(F)F)cc2)C1 [Example 62, (R,E)-N-(1-isopentylpiperidin-3-yl)-N-(4-(methyl(pyridin-4-yl)amino)benzyl)-3-(4-(trifluoromethyl)phenyl)acrylamide] | 70 nM |
| CN1CCC(N2CCC3(CCC(N(Cc4ccc(N(C)c5ccncc5)cc4)C(=O)/C=C/c4ccc(C(F)(F)F)cc4)CC3)CC2)CC1 [Example 65, (E)-N-(4-(methyl(pyridin-4-yl)amino)benzyl)-N-(3-(1-methylpiperidin-4-yl)-3-azaspiro[5.5]undecan-9-yl)-3-(4-(trifluoromethyl)phenyl)acrylamide] | 21 nM |
| CN(c1ccncc1)c1ccc(CN(C(=O)/C=C/c2ccc(C(F)(F)F)cc2)C2CCC3(CC2)CCN(C2CCCC2)CC3)cc1 [Example 67, (E)-N-(3-cyclopentyl-3-azaspiro[5.5]undecan-9-yl)-N-(4-(methyl(pyridin-4-yl)amino)benzyl)-3-(4-(trifluoromethyl)phenyl)acrylamide] | 40 nM |
| CC(C)CCN1CCC2(CCC(N(Cc3ccc(N(C)c4ccncc4)cc3)C(=O)/C=C/c3ccc(C(F)(F)F)cc3)CC2)CC1 [Example 69, (E)-N-(3-isopentyl-3-azaspiro[5.5]undecan-9-yl)-N-(4-(methyl(pyridin-4-yl)amino)benzyl)-3-(4-(trifluoromethyl)phenyl)acrylamide] | 41 nM |
| CN1CCC(N2CC3(CC(N(Cc4ccc(N(C)c5ccncc5)cc4)C(=O)/C=C/c4ccc(C(F)(F)F)cc4)C3)C2)CC1 [Example 73, (E)-N-(4-(methyl(pyridin-4-yl)amino)benzyl)-N-(2-(1-methylpiperidin-4-yl)-2-azaspiro[3.3]heptan-6-yl)-3-(4-(trifluoromethyl)phenyl)acrylamide] | 42 nM |
| CN(c1ccncc1)c1ccc(CN(C(=O)/C=C/c2ccc(C(F)(F)F)cc2)C2CC3(C2)CN(C2CCCC2)C3)cc1 [Example 74, (E)-N-(2-cyclopentyl-2-azaspiro[3.3]heptan-6-yl)-N-(4-(methyl(pyridin-4-yl)amino)benzyl)-3-(4-(trifluoromethyl)phenyl)acrylamide] | 41 nM |
| CC(C)CCN1CC2(CC(N(Cc3ccc(N(C)c4ccncc4)cc3)C(=O)/C=C/c3ccc(C(F)(F)F)cc3)C2)C1 [Example 75, (E)-N-(2-isopentyl-2-azaspiro[3.3]heptan-6-yl)-N-(4-(methyl(pyridin-4-yl)amino)benzyl)-3-(4-(trifluoromethyl)phenyl)acrylamide] | 30 nM |
| CCN1CCC[C@H](N(Cc2ccc(N(C)c3ccncc3)cc2)C(=O)/C=C/c2ccc(C(F)(F)F)cc2)C1 [Example 82, (E)-N-((S)-1-Ethyl-piperidin-3-yl)-N-[4-(methyl-pyridin-4-yl-amino)-benzyl]-3-(4-trifluoromethyl-phenyl)-acrylamide] | 140 nM |
| CC(C)N1CCC[C@H](N(Cc2ccc(N(C)c3ccncc3)cc2)C(=O)/C=C/c2ccc(C(F)(F)F)cc2)C1 [Example 83, (E)-N-((S)-1-Isopropyl-piperidin-3-yl)-N-[4-(methyl-pyridin-4-yl-amino)-benzyl]-3-(4-trifluoromethyl-phenyl)-acrylamide] | 120 nM |
| Cc1cc(Nc2ccc(CN(C(=O)/C=C/c3ccc(C(F)(F)F)cc3)C3CCN(C4CCCC4)CC3)cc2)c2ccccc2n1 [Example 85, (E)-N-(1-Cyclopentyl-piperidin-4-yl)-N-[4-(2-methyl-quinolin-4-ylamino)-benzyl]-3-(4-trifluoromethyl-phenyl)-acrylamide] | 43 nM |
| O=C(/C=C/c1ccc(C(F)(F)F)cc1)N(Cc1ccc(Nc2ccncc2)cc1)C1CCN(C2CCCC2)CC1 [Example 86, (E)-N-(1-Cyclopentyl-piperidin-4-yl)-N-[4-(pyridin-4-ylamino)-benzyl]-3-(4-trifluoromethyl-phenyl)-acrylamide] | 43 nM |
| Cc1cc(Nc2ccc(CN(C(=O)/C=C/c3ccc(C(F)(F)F)cc3)C3CCN(C4CCCC4)CC3)cc2)cc(C)n1 [Example 87, (E)-N-(1-Cyclopentyl-piperidin-4-yl)-N-[4-(2,6-dimethyl-pyridin-4-ylamino)-benzyl]-3-(4-trifluoromethyl-phenyl)-acrylamide] | 28 nM |
| COc1ccc2nccc(Nc3ccc(CN(C(=O)/C=C/c4ccc(C(F)(F)F)cc4)C4CCN(C5CCCC5)CC4)cc3)c2c1 [Example 88, (E)-N-(1-Cyclopentyl-piperidin-4-yl)-N-[4-(6-methoxy-quinolin-4-ylamino)-benzyl]-3-(4-trifluoromethyl-phenyl)-acrylamide] | 21 nM |
| O=C(/C=C/c1ccc(C(F)(F)F)cc1)N(Cc1ccc(Nc2cc(C(F)(F)F)nc3c(C(F)(F)F)cccc23)cc1)C1CCN(C2CCCC2)CC1 [Example 89, (E)-N-[4-(2,8-Bis-trifluoromethyl-quinolin-4-ylamino)-benzyl]-N-(1-cyclopentyl-piperidin-4-yl)-3-(4-trifluoromethyl-phenyl)-acrylamide] | 337 nM |
| O=C(/C=C/c1ccc(C(F)(F)F)cc1)N(Cc1ccc(Nc2ccnc3cc(C(F)(F)F)ccc23)cc1)C1CCN(C2CCCC2)CC1 [Example 90, (E)-N-(1-Cyclopentyl-piperidin-4-yl)-3-(4-trifluoromethyl-phenyl)-N-[4-(7-trifluoromethyl-quinolin-4-ylamino)-benzyl]-acrylamide] | 138 nM |
| O=C(/C=C/c1ccc(C(F)(F)F)cc1)N(Cc1ccc(Nc2cncnc2)cc1)C1CCN(C2CCCC2)CC1 [Example 91, (E)-N-(1-Cyclopentyl-piperidin-4-yl)-N-[4-(pyrimidin-5-ylamino)-benzyl]-3-(4-trifluoromethyl-phenyl)-acrylamide] | 291 nM |
| O=C(/C=C/c1ccc(C(F)(F)F)cc1)N(Cc1ccc(Nc2ccncn2)cc1)C1CCN(C2CCCC2)CC1 [Example 92, (E)-N-(1-Cyclopentyl-piperidin-4-yl)-N-[4-(pyrimidin-4-ylamino)-benzyl]-3-(4-trifluoromethyl-phenyl)-acrylamide] | 269 nM |
| O=C(/C=C/c1ccc(C(F)(F)F)cc1)N(Cc1ccc(Nc2ccccc2)cc1)C1CCN(C2CCCC2)CC1 [Example 93, (E)-N-(1-Cyclopentyl-piperidin-4-yl)-N-(4-phenylamino-benzyl)-3-(4-trifluoromethyl-phenyl)-acrylamide] | 418 nM |
| COc1cc(Nc2ccc(CN(C(=O)/C=C/c3ccc(C(F)(F)F)cc3)C3CCN(C4CCCC4)CC3)cc2)ccn1 [Example 94, (E)-N-(1-Cyclopentyl-piperidin-4-yl)-N-[4-(2-methoxy-pyridin-4-ylamino)-benzyl]-3-(4-trifluoromethyl-phenyl)-acrylamide] | 286 nM |
